Reference: publication PMC5798851, “The structure of FIV reverse transcriptase and its implications for non-nucleoside inhibitor resistance” (PLoS Pathogens, 2018)
Read-outs that look alike come from different tables or passages of the source.

Tests used:
FIV RT (fRT) = target: T1, FIV RT (fRT) (Feline immunodeficiency virus, UniProt P16088); test: Microscale thermophoresis (MST) NNRTI binding affinity to wild type FIV RT
T1 construct: The p66 subunit (residues 1–554) was cloned into pET22b; p51 subunit (residues 1–430) in pET28b (kan resistance, Novagen) with a thrombin-cleavable His-tag at the N-terminus; His-tag (thrombin-cleavable) (N, cleaved yes); made in house; host or cells: E. coli ArcticExpress
Description: (§1) RT proteins were labeled with Monolith NT protein labeling kit BLUE-NHS (NanoTemper Technologies) and eluted in microscale thermophoresis (MST) buffer (50 mm Tris-HCl, pH 7.0, 300 mM NaCl and 0.05% Tween-20).

HIV-1 RT [1] = target: T2, HIV-1 RT (Human immunodeficiency virus type 1 group M subtype B, UniProt P03366); test: biochemical; format: binding
T2 construct: HIV-1 RT construct, containing p66 and protease coding regions in pT5M plasmid; His-tag (implied by cobalt-resin purification); made in house; host or cells: E. coli BL21(DE3)

mutated fRT (FIVm) = target: T3, mutated fRT (FIVm) (Feline immunodeficiency virus, UniProt P16088, A293E/G294T/K290I/R289S/R297I); test: DNA-dependent DNA polymerization activity assay, mutant FIV RT; format: biochemical, feline immunodeficiency virus (FIV); conditions: 0.15 μM RT, 30 minutes at 37°C
T3 construct: The p66 subunit (residues 1–554) was cloned into pET22b; p51 subunit (residues 1–430) in pET28b (kan resistance, Novagen) with a thrombin-cleavable His-tag at the N-terminus; His-tag (thrombin-cleavable) (N, cleaved yes); made in house; host or cells: E. coli ArcticExpress
Description: (§2) DNA-dependent DNA polymerization activity of RT enzymes was assessed using a DNA primer/template prepared by annealing of 70-mer ssDNA template with a complementary 25-mer ssDNA primer labeled with 6-FAM at 5’-end (Integrated DNA Technologies).
(§3) Reaction mixtures contained 100 mM Tris-HCl pH 7.5, 75 mM KCl, 0.5 mM dNTP mixture, 60 mM MgCl2, 5 mM DTT and 0.15 μM RT, 0.5 μM DNA substrate. Reactions were incubated for 30 minutes at 37°C and stopped using urea sample loading buffer and heating at 95°C for 10 minutes. Reaction products were resolved using denaturing urea polyacrylamide gel electrophoresis (S5B Fig). Percentage RT activities represent percentile of band-intensities of polymerized product divided by those of template/primer substrate.

HIV-1 RT [2] = target: T2, HIV-1 RT; format: biochemical
Description: as §2
as §3, with “Reactions” for “Reaction mixtures contained 100 mM Tris-HCl pH 7.5, 75 mM KCl, 0.5 mM dNTP mixture, 60 mM MgCl2, 5 mM DTT and 0.15 μM RT, 0.5 μM DNA substrate. Reactions”

[3] = test system: mutant fRT (FIVm; R133S, K134I, A137E, G138T and R141I in FIV p51); test: Microscale thermophoresis (MST) NNRTI binding affinity to p51-loop mutant FIV RT; design: species or system feline immunodeficiency virus (FIV); conditions: MST; for binding affinity to mutated fRT as compared to HIV-1 RT: FIVm versus HIV-1 RT
From the text: (§4) The two subunits of FIV RT (Petaluma) were subcloned into separate plasmids to facilitate site-specific mutagenesis. […] FIV RT mutant (FIVm) was generated by introducing the specific mutations into the p51 subunit using QuikChange Kit (Agilent Technologies Genomics). HIV-1 RT construct, containing p66 and protease coding regions in pT5M plasmid, was a generous gift of Prof. Stephen H. Hughes (National Cancer Institute- Frederick, MD, USA).
as §1

[4] = target: T4, mutant fRT (FIVm; R133S, K134I, A137E, G138T and R141I in FIV p51) (Feline immunodeficiency virus, UniProt P16088, A293E/G294T/K290I/R289S/R297I); test: as above
T4 construct: The p66 subunit (residues 1–554) was cloned into pET22b; p51 subunit (residues 1–430) in pET28b (kan resistance, Novagen) with a thrombin-cleavable His-tag at the N-terminus; His-tag (thrombin-cleavable) (N, cleaved yes); made in house; host or cells: E. coli ArcticExpress
From the text: as §4, §1

SMILES | binding to fRT (in words) (FIV RT (fRT)) | Kd (HIV-1 RT [1]) [µM] | effect on DNA polymerization activity of the mutated fRT (in words) (mutated fRT (FIVm)) | inhibition of HIV-1 RT DNA polymerization activity (in words) (HIV-1 RT [2]) | binding affinity to mutated fRT as compared to HIV-1 RT [3] | Kd [4] [µM] | Kd (FIV RT (fRT); mean ±SD) [µM] | Kd (HIV-1 RT [1]; MST, mean ±SD, read-out: Kd, binding to HIV-1 RT) [µM] | inhibition of HIV-1 RT DNA polymerization activity (in words) (HIV-1 RT [2]; 0.15 μM RT, 30 minutes at 37°C) | binding affinity to mutated fRT as compared to fRT ([3]; FIVm versus wild type fRT)
CC(C)Nc1cccnc1N1CCN(C(=O)c2cc3cc(NS(C)(=O)=O)ccc3[nH]2)CC1 [DLV, Delavirdine] | fail to bind | 0.617 ± 0.1 | none of the three inhibitors EFZ, DLV or RPV reduced the activity | potently inhibiting | twice the affinity | 0.227 ± 0.071 | – | – | – | –
O=C1Nc2ccc(Cl)cc2[C@@](C#CC2CC2)(C(F)(F)F)O1 [EFZ, Efavirenz] | fail to bind | – | none of the three inhibitors EFZ, DLV or RPV reduced the activity | – | comparable affinities | – | – | – | – | –
Cc1cc(/C=C/C#N)cc(C)c1Nc1ccnc(Nc2ccc(C#N)cc2)n1 [RPV, Rilpivirine] | able to bind to fRT with comparable affinity to HIV-1 RT | – | none of the three inhibitors EFZ, DLV or RPV reduced the activity | – | comparable affinities | 0.368 ± 0.06 | 0.796 ± 0.076 | 0.539 ± 0.025 | potently inhibiting | twice the affinity
